According to US20230243856A1, “IDENTIFYING DIRECT ORAL FACTOR XA INHIBITORS” (Instrumentation Laboratory Company, priority 2022, published 2023):

Tested on: clotting of a test sample, such as whole blood
Assay: low tissue factor clotting assay with a reagent of diluted tissue factor, CaCl2 and polycation heparin inhibitor (polybrene)
Format: biochemical
Details: for relationship between TTC and concentration in the sample: range shown between 0 and 500 ng/mL, TTC in seconds; for relationship between TTC and concentration in the sample / concentration in the test sample at a measured clotting time of 400 seconds: FIG. 2 / FIG. 3; for concentration in the test sample at a measured clotting time of 400 seconds: read from plot of TTC versus concentration; for plot of TTC versus concentration with 1 IU UFH or 0 IU UFH in the test sample: test sample with 1 IU unfractionated heparin or no heparin, region 400 / 500 of FIG. 4 / FIG. 5
Excerpt: The clotting assay uses a reagent to initiate the clotting of a test sample, such as whole blood or a sample derived from whole blood (e.g., plasma). A low tissue factor assay is an example of a clotting assay. […] The low tissue factor assay monitors the clotting of a mixture of the test sample and the reagent and determines clotting parameters based on that clotting. The TTC parameters can be different on different clinical analyzer systems and for different low tissue factor assays. For example, TTC parameter(s) for low tissue factor assays performed using the ROTEM® sigma and the RQTEM® delta systems by Werfen® include clotting time (CT) (where CT is the latency time from adding reagent to sample until the clot starts to form); TTC parameter(s) for low tissue factor assays performed using the TEG® 6s system by Haemonetics® include reaction time (R) and clotting time (CT); and TTC parameter(s) for low tissue factor assays performed using the Quanta® system by the Hemoscnics® system include dot time (CT). An example of the reagent that may be used in the low tissue factor assay (referred to below as “the assay”) to initiate clotting of the test sample includes the following constituents: a diluted tissue factor (“the tissue factor”), calcium chloride (CaCl2), and a heparin inhibitor. The tissue factor activates the extrinsic pathway; the heparin inhibitor reduces or eliminates the sensitivity of the assay to heparin or at least certain concentrations of heparin in the test sample; and CaCl2 recalcifies the sample as required for blood clotting to occur. An example of a type of heparin inhibitor that may be used in the reagent is polycation. An example of a polycation that may be used in the reagent includes, but is not limited to, polybrene. […] In this example, process 100 includes receiving (100a) a test sample having an unknown anti-Xa DOAC at an unknown concentration. The test sample may be received in a diagnostic testing/clinical analyzer system or a manual testing system. The test sample may be any of the types of test samples described herein. The system performs a low tissue factor assay on the test sample. This includes causing the test sample to contact a reagent such as the example reagents described herein. The test sample mixes (100b) with the reagent. The mixing may be performed automatically or manually by physically moving the test sample and the reagent using a mixing element mechanism, e.g., agitation, flow, or the like. The resulting liquid, which is a mixture of the sample and the reagent, begins to clot. The clotting parameters(s), such as TTC, CFT, and/or amplitudes, of clots formed from the liquid may be measured (100c) by the diagnostic testing/clinical analyzer system or manually. The plots of FIGS. 4 to 6, which are described below, are associated with various experiments using the low tissue factor assay and the example reagents described herein containing the tissue factor, CaCl2, and a heparin inhibitor, such as polybrene or other polycation.

Structure (SMILES) | relationship between TTC and concentration in the sample | concentration in the test sample at a measured clotting time of 400 seconds | plot of TTC versus concentration with 1 IU UFH or 0 IU UFH in the test sample
O=C(NC[C@H]1CN(c2ccc(N3CCOCC3=O)cc2)C(=O)O1)c1ccc(Cl)s1 [rivaroxaban] | linear | about 50 ng/mL | substantially linear
COc1ccc(-n2nc(C(N)=O)c3c2C(=O)N(c2ccc(N4CCCCC4=O)cc2)CC3)cc1 [apixaban] | linear | about 160 ng/mL | substantially linear
